Results published in patent US20260055079A1, “PHTHALAZINONE COMPOUNDS AS PARP7 INHIBITORS” (AZKARRA THERAPEUTICS, INC., priority 2022, published 2026).
Read-outs that look alike come from different tables or passages of the source.

Columns and labels:
[1] = tested on: NCI-H1373 (human lung adenocarcinoma) cells; assay: Cell proliferation assay (CellTiter-Glo), NCI-H1373; format: cell-based; details: Homo sapiens, NCI-H1373, 144 h, read-out: NCI-H1373 GI50
[2] = molecular target: His-GST-PARP7 (Homo sapiens (Human), UniProt Q7Z3E1); assay: PARP7 biochemical assay; details: read-out: PARP7 IC50
Sequence of His-GST-PARP7 (Q7Z3E1 whole entry): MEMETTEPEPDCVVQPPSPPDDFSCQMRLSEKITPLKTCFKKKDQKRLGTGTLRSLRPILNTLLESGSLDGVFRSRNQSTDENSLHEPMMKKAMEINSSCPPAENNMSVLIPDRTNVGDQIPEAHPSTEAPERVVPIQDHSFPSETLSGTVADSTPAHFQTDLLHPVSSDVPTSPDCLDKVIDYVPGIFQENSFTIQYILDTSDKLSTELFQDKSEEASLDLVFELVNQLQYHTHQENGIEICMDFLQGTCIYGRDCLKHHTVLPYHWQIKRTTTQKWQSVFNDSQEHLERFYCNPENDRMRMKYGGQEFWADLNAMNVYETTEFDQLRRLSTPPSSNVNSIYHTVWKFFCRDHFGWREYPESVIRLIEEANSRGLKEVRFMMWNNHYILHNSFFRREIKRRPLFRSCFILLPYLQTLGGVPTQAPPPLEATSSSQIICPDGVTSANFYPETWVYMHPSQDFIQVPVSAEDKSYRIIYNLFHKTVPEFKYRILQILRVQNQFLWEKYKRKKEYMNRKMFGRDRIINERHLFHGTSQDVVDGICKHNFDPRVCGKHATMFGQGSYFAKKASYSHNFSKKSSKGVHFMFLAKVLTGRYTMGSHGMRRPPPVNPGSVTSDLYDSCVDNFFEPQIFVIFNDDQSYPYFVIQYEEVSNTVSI

Row | Structure (SMILES) | IC50 [2] [nM] | GI50 ([1]; 6 days, CellTiter-Glo) [nM] | GI50 [1] [nM]
1 | N#Cc1ccc(N2CCN(C(=O)c3cccc(Cc4n[nH]c(=O)c5ccc(Oc6ccccc6)cc45)c3)CC2)nc1 [Example 2, 6-(4-(3-((4-Oxo-7-phenoxy-3,4-dihydrophthalazin-1-yl)methyl)benzoyl)piperazin-1-yl)nicotinonitrile] |  |  | < 100
2 | N#Cc1ccc(N2CCN(C(=O)c3cccc(Cc4n[nH]c(=O)c5ccc(Cl)cc45)c3)CC2)nc1 [Example 5, 6-(4-(3-((7-Chloro-4-oxo-3,4-dihydrophthalazin-1-yl)methyl)benzoyl)piperazin-1-yl)nicotinonitrile] |  |  | 100 to 1000
3 | N#Cc1ccc(N2CCN(C(=O)c3cccc(Cc4n[nH]c(=O)c5ccc(F)cc45)c3)CC2)nc1 [Example 6, 6-(4-(3-((7-Fluoro-4-oxo-3,4-dihydrophthalazin-1-yl)methyl)benzoyl)piperazin-1-yl)nicotinonitrile] |  |  | 100 to 1000
4 | N#Cc1ccc(N2CCN(C(=O)c3cc(Cc4n[nH]c(=O)c5ccc(OCC6CC6)cc45)ccc3F)CC2)nc1 [Example 7, 6-(4-(5-((7-(Cyclopropylmethoxy)-4-oxo-3,4-dihydrophthalazin-1-yl)methyl)-2-fluorobenzoyl)piperazin-1-yl)nicotinonitrile] |  |  | < 100
5 | N#Cc1ccc(N2CCN(C(=O)c3cc(Cc4n[nH]c(=O)c5ccc(OCC(F)(F)F)cc45)ccc3F)CC2)nc1 [Example 9, 6-(4-(2-Fluoro-5-((4-oxo-7-(2,2,2-trifluoroethoxy)-3,4-dihydrophthalazin-1-yl)methyl)benzoyl)piperazin-1-yl)nicotinonitrile] | < 50 |  | 100 to 1000
6 | COC1CN(c2ccc3c(=O)[nH]nc(Cc4ccc(F)c(C(=O)N5CCN(c6ccc(C#N)cn6)CC5)c4)c3c2)C1 [Example 11, 6-(4-(2-Fluoro-5-((7-(3-methoxyazetidin-1-yl)-4-oxo-3,4-dihydrophthalazin-1-yl)methyl)benzoyl)piperazin-1-yl)nicotinonitrile] | < 50 |  | 100 to 1000
7 | N#Cc1ccc(N2CCN(C(=O)c3cc(Cc4n[nH]c(=O)c5ccc(NC6CC6)cc45)ccc3F)CC2)nc1 [Example 12, 6-(4-(5-((7-(Cyclopropylamino)-4-oxo-3,4-dihydrophthalazin-1-yl)methyl)-2-fluorobenzoyl)piperazin-1-yl)nicotinonitrile] | < 50 | 100 to 1000 | 
8 | C#CCNc1ccc2c(=O)[nH]nc(Cc3ccc(F)c(C(=O)N4CCN(c5ccc(C#N)cn5)CC4)c3)c2c1 [Example 15, 6-(4-(2-Fluoro-5-((4-oxo-7-(prop-2-ynylamino)-3,4-dihydrophthalazin-1-yl)methyl)benzoyl)piperazin-1-yl)nicotinonitrile] | < 50 | 1000 to 5000 | 
9 | C#CCN(C)c1ccc2c(=O)[nH]nc(Cc3ccc(F)c(C(=O)N4CCN(c5ccc(C#N)cn5)CC4)c3)c2c1 [Example 17, 6-(4-(2-Fluoro-5-((7-(methyl(prop-2-ynyl)amino)-4-oxo-3,4-dihydrophthalazin-1-yl)methyl)benzoyl)piperazin-1-yl)nicotinonitrile] | < 50 | 1000 to 5000 | 
10 | CC#CCOc1ccc2c(=O)[nH]nc(Cc3ccc(F)c(C(=O)N4CCN(c5ccc(C#N)cn5)CC4)c3)c2c1 [Example 19, 6-(4-(5-((7-(But-2-ynyloxy)-4-oxo-3,4-dihydrophthalazin-1-yl)methyl)-2-fluorobenzoyl)piperazin-1-yl)nicotinonitrile] | < 50 | 100 to 1000 | 
11 | N#Cc1ccc(N2CCN(C(=O)c3cc(Cc4n[nH]c(=O)c5ccc(OC(F)F)cc45)ccc3F)CC2)nc1 [Example 21, 6-(4-(5-((7-(Difluoromethoxy)-4-oxo-3,4-dihydrophthalazin-1-yl)methyl)-2-fluorobenzoyl)piperazin-1-yl)nicotinonitrile] | < 50 |  | 100 to 1000
12 | CC#Cc1ccc2c(=O)[nH]nc(Cc3ccc(F)c(C(=O)N4CC(N(C)c5ccc(C#N)cn5)C4)c3)c2c1 [Example 70, 6-((1-(2-Fluoro-5-((4-oxo-7-(prop-1-yn-1-yl)-3,4-dihydrophthalazin-1-yl)methyl)benzoyl)azetidin-3-yl)(methyl)amino)nicotinonitrile 2,2,2-trifluoroacetate] | > 2000 | > 5000 | 
13 | O=C(c1cc(Cc2n[nH]c(=O)c3ccc(OC4CCC4)cc23)ccc1F)N1CCN(C(=O)C2CC2)CC(F)(F)C1 [Example 127, 6-Cyclobutoxy-4-(3-(4-(cyclopropanecarbonyl)-6,6-difluoro-1,4-diazepane-1-carbonyl)-4-fluorobenzyl)phthalazin-1(2H)-one] | < 50 | 1000 to 5000 | 
14 | O=C(c1cc(Cc2n[nH]c(=O)c3ccc(OC4CCC4)cc23)ccc1F)N1CCN(c2ccc(O)cn2)CC1 [Example 140, 6-cyclobutoxy-4-(4-fluoro-3-(4-(5-hydroxypyridin-2-yl)piperazine-1-carbonyl)benzyl)phthalazin-1(2H)-one] | < 50 | 1000 to 5000 | 
15 | O=C(c1cc(Cc2n[nH]c(=O)c3ccc(OC4CCC4)cc23)ccc1F)N1CCn2c(nnc2C(F)(F)F)C1 [Example 145, 6-cyclobutoxy-4-(4-fluoro-3-(3-(trifluoromethyl)-5,6,7,8-tetrahydro-[1,2,4]triazolo[4,3-a]pyrazine-7-carbonyl)benzyl)phthalazin-1(2H)-one] | < 50 | 1000 to 5000 | 
16 | O=C(c1cc(Cc2n[nH]c(=O)c3ccc(OC4CCC4)cc23)ccc1F)N1CCn2c(nnc2C2CC2)C1 [Example 146, 6-cyclobutoxy-4-(3-(3-cyclopropyl-5,6,7,8-tetrahydro-[1,2,4]triazolo[4,3-a]pyrazine-7-carbonyl)-4-fluorobenzyl)phthalazin-1(2H)-one] | < 50 | > 5000 | 

Further lines, with some results ahead:

Row | IC50 [2] [nM] | GI50 ([1]; 6 days, CellTiter-Glo) [nM] | Structure (SMILES) | GI50 [1] [nM]
17 | < 50 | 1000 to 5000 | N#Cc1ccc(N2CCN(C(=O)c3cc(Cc4n[nH]c(=O)c5ccc(NCC(F)(F)F)cc45)ccc3F)CC2)nc1 [Example 22, 6-(4-(2-Fluoro-5-((4-oxo-7-((2,2,2-trifluoroethyl)amino)-3,4-dihydrophthalazin-1-yl)methyl)benzoyl)piperazin-1-yl)nicotinonitrile] | 
18 | < 50 | 100 to 1000 | N#Cc1ccc(N2CCN(C(=O)c3cc(Cc4n[nH]c(=O)c5ccc(NC6CCC6)cc45)ccc3F)CC2)nc1 [Example 29, 6-(4-(5-((7-(Cyclobutylamino)-4-oxo-3,4-dihydrophthalazin-1-yl)methyl)-2-fluorobenzoyl)piperazin-1-yl)nicotinonitrile] | 
19 | < 50 | 1000 to 5000 | N#Cc1ccc(N2CCN(C(=O)c3cc(Cc4n[nH]c(=O)c5ccc(NCCC(F)(F)F)cc45)ccc3F)CC2)nc1 [Example 33, 6-(4-(2-Fluoro-5-((4-oxo-7-((3,3,3-trifluoropropyl)amino)-3,4-dihydrophthalazin-1-yl)methyl)benzoyl)piperazin-1-yl)nicotinonitrile] | 
20 | < 50 | > 5000 | CC#Cc1ccc2c(=O)[nH]nc(Cc3ccc(F)c(C(=O)N4CCN(C(=O)CC#N)CC4)c3)c2c1 [Example 58, 3-(4-(2-Fluoro-5-((4-oxo-7-(prop-1-ynyl)-3,4-dihydrophthalazin-1-yl)methyl)benzoyl)piperazin-1-yl)-3-oxopropanenitrile] | 
21 | < 50 | 1000 to 5000 | CC#Cc1ccc2c(=O)[nH]nc(Cc3ccc(F)c(C(=O)N4CC5(C4)CN(c4ccc(C#N)cn4)C5)c3)c2c1 [Example 60, 6-(6-(2-Fluoro-5-((4-oxo-7-(prop-1-yn-1-yl)-3,4-dihydrophthalazin-1-yl)methyl)benzoyl)-2,6-diazaspiro[3.3]heptan-2-yl)nicotinonitrile] | 
22 | < 50 | > 5000 | CC#Cc1ccc2c(=O)[nH]nc(Cc3ccc(F)c(C(=O)N4CCn5c(nnc5C5CC5)C4)c3)c2c1 [Example 63, 4-[[3-(3-cyclopropyl-6,8-dihydro-5H-[1,2,4]triazolo[4,3-a]pyrazine-7-carbonyl)-4-fluoro-phenyl]methyl]-6-prop-1-ynyl-2H-phthalazin-1-one] | 
23 | < 50 | 1000 to 5000 | CC#Cc1ccc2c(=O)[nH]nc(Cc3ccc(F)c(C(=O)N4C[C@H]5C[C@@H]4CN5c4ccc(C#N)cn4)c3)c2c1 [Example 66, 6-((1R,4R)-5-(2-Fluoro-5-((4-oxo-7-(prop-1-ynyl)-3,4-dihydrophthalazin-1-yl)methyl)benzoyl)-2,5-diazabicyclo[2.2.1]heptan-2-yl)nicotinonitrile] | 
24 | 50 to 100 | 1000 to 5000 | CC#Cc1ccc2c(=O)[nH]nc(Cc3ccc(F)c(C(=O)N4CCC(F)(c5ccc(C#N)cn5)CC4)c3)c2c1 [Example 67, 6-(4-Fluoro-1-(2-fluoro-5-((4-oxo-7-(prop-1-yn-1-yl)-3,4-dihydrophthalazin-1-yl)methyl)benzoyl)piperidin-4-yl)nicotinonitrile] | 
25 | > 2000 | > 5000 | CC#Cc1ccc2c(=O)[nH]nc(Cc3ccc(F)c(C(=O)N4CC(N(C)c5cc(C#N)ccn5)C4)c3)c2c1 [Example 69] | 
26 | < 50 | 1000 to 5000 | CC#Cc1ccc2c(=O)[nH]nc(Cc3ccc(F)c(C(=O)N4CCN(c5ccc(C#N)cn5)C(=O)C4(C)C)c3)c2c1 [Example 71, 6-(4-(2-Fluoro-5-((4-oxo-7-(prop-1-yn-1-yl)-3,4-dihydrophthalazin-1-yl)methyl)benzoyl)-3,3-dimethyl-2-oxopiperazin-1-yl)nicotinonitrile] | 
27 | < 50 | 100 to 1000 | CC#Cc1cc2c(Cc3ccc(F)c(C(=O)N4CCN(c5ccc(C#N)cn5)CC4)c3)n[nH]c(=O)c2cc1C [Example 83, 6-(4-(2-Fluoro-5-((6-methyl-4-oxo-7-(prop-1-yn-1-yl)-3,4-dihydrophthalazin-1-yl)methyl)benzoyl)piperazin-1-yl)nicotinonitrile] | 
28 | < 50 | 100 to 1000 | N#Cc1ccc(N2CCN(C(=O)c3cccc(Cc4n[nH]c(=O)c5c(F)cccc45)c3)CC2)nc1 [Example 88, 6-(4-(3-((5-Fluoro-4-oxo-3,4-dihydrophthalazin-1-yl)methyl)benzoyl)piperazin-1-yl)nicotinonitrile] | 
